According to ChEMBL document CHEMBL4627246, “Pyroglutamide-Based P2X7 Receptor Antagonists Targeting Inflammatory Bowel Disease” (J Med Chem, 2020):

Assays:
Format in all cases: cell-based
COLO 205 = experiment: Cytotoxicity against human COLO205 cells assessed as effect on cell growth at 10 uM incubated for 48 hrs by sulforhodamine B assay; settings: colo 205, 48 h
HCC 2998 = experiment: Cytotoxicity against human HCC2998 cells assessed as effect on cell growth at 10 uM incubated for 48 hrs by sulforhodamine B assay; settings: hcc 2998, 48 h
SF-539 = experiment: Cytotoxicity against human SF539 cells assessed as effect on cell growth at 10 uM incubated for 48 hrs by sulforhodamine B assay; settings: sf-539, 48 h
CCRF-CEM = experiment: Cytotoxicity against human CCRF-CEM cells assessed as effect on cell growth at 10 uM incubated for 48 hrs by sulforhodamine B assay
OVCAR-4 = experiment: Cytotoxicity against human OVCAR4 cells assessed as effect on cell growth at 10 uM incubated for 48 hrs by sulforhodamine B assay; settings: ovcar-4, 48 h
A498 = experiment: Cytotoxicity against human A498 cells assessed as effect on cell growth at 10 uM incubated for 48 hrs by sulforhodamine B assay; settings: a498, 48 h
MDA-MB-231 = experiment: Cytotoxicity against human MDA-MB-231 cells assessed as effect on cell growth at 10 uM incubated for 48 hrs by sulforhodamine B assay; settings: mda-mb-231, 48 h
SF-295 = experiment: Cytotoxicity against human SF295 cells assessed as effect on cell growth at 10 uM incubated for 48 hrs by sulforhodamine B assay; settings: sf-295, 48 h
SK-MEL-2 = experiment: Cytotoxicity against human SK-MEL-2 cells assessed as effect on cell growth at 10 uM incubated for 48 hrs by sulforhodamine B assay; settings: sk-mel-2, 48 h
OVCAR-3 = experiment: Cytotoxicity against human OVCAR3 cells assessed as effect on cell growth at 10 uM incubated for 48 hrs by sulforhodamine B assay; settings: ovcar-3, 48 h
HOP-62 = experiment: Cytotoxicity against human HOP62 cells assessed as effect on cell growth at 10 uM incubated for 48 hrs by sulforhodamine B assay; settings: hop-62, 48 h
M14 = experiment: Cytotoxicity against human M14 cells assessed as effect on cell growth at 10 uM incubated for 48 hrs by sulforhodamine B assay; settings: m14, 48 h
SK-MEL-28 = experiment: Cytotoxicity against human SK-MEL-28 cells assessed as effect on cell growth at 10 uM incubated for 48 hrs by sulforhodamine B assay; settings: sk-mel-28, 48 h
A549 = experiment: Cytotoxicity against human A549/ATCC cells assessed as effect on cell growth at 10 uM incubated for 48 hrs by sulforhodamine B assay; settings: a549, 48 h
RXF 393 = experiment: Cytotoxicity against human RXF393 cells assessed as effect on cell growth at 10 uM incubated for 48 hrs by sulforhodamine B assay; settings: rxf 393, 48 h
NCI/ADR-RES = experiment: Cytotoxicity against human NCI/ADR-RES cells assessed as effect on cell growth at 10 uM incubated for 48 hrs by sulforhodamine B assay
K562 = experiment: Cytotoxicity against human K562 cells assessed as effect on cell growth at 10 uM incubated for 48 hrs by sulforhodamine B assay; settings: k562, 48 h
Malme-3M = experiment: Cytotoxicity against human MALME-3M cells assessed as effect on cell growth at 10 uM incubated for 48 hrs by sulforhodamine B assay
OVCAR-8 = experiment: Cytotoxicity against human OVCAR8 cells assessed as effect on cell growth at 10 uM incubated for 48 hrs by sulforhodamine B assay; settings: ovcar-8, 48 h
T47D = experiment: Cytotoxicity against human T47D cells assessed as effect on cell growth at 10 uM incubated for 48 hrs by sulforhodamine B assay

Measured: Activity

CCCCCCN1C(=O)[C@@H]2CCC(=O)N2C1N(C)C (stereo not given in full)
Non-Toxic: COLO 205 | HCC 2998 | SF-539 | CCRF-CEM | OVCAR-4 | A498 | MDA-MB-231 | SF-295 | SK-MEL-2 | OVCAR-3 | HOP-62 | M14 | SK-MEL-28 | A549 | RXF 393 | NCI/ADR-RES | K562 | Malme-3M | OVCAR-8 | T47D

Cc1ccc(NC(=O)[C@@H]2CCC(=O)N2c2ccccc2)cc1
Non-Toxic: COLO 205 | HCC 2998 | SF-539 | CCRF-CEM | OVCAR-4 | A498 | MDA-MB-231 | SF-295 | SK-MEL-2 | OVCAR-3 | HOP-62 | M14 | SK-MEL-28 | A549 | RXF 393 | NCI/ADR-RES | K562 | Malme-3M | OVCAR-8 | T47D

O=C(NCc1ccc(Cl)cc1Cl)[C@@H]1CCC(=O)N1c1cccs1
Non-Toxic: COLO 205 | HCC 2998 | SF-539 | CCRF-CEM | OVCAR-4 | A498 | MDA-MB-231 | SF-295 | SK-MEL-2 | OVCAR-3 | HOP-62 | M14 | SK-MEL-28 | A549 | RXF 393 | NCI/ADR-RES | K562 | Malme-3M | OVCAR-8 | T47D
